Results taken from US20230295197A1, “STAT5 and STAT6 Degraders and Uses Thereof” (REGENTS OF THE UNIVERSITY OF MICHICAN, priority 2022, published 2023).
Read-outs that look alike come from different tables or passages of the source.

Columns and labels:
STAT5 = test: Immunoblotting (Western blot) analysis of STAT5 degradation efficiency of degraders in treated cells; type: cell-based
Description: Evaluation of the degradation efficiency of degraders may be accomplished by immunoblotting analysis. The representative general protocol is the following:
Cells are maintained in the appropriate culture medium with 10% FBS at 37° C. and an atmosphere of 5% CO2. Cell lines are used within three months of thawing fresh vials. Cells are lysed 1× Cell Lysis Buffer (Cell Signaling Technology, #9803), resolved by SDS-PAGE NuPAGE gel (Thermo Fisher Scientific), and transferred to a PVDF membrane (Millipore). Membranes are blocked using Odyssey TBS Blocker Buffer (LI-COR). IRDye 680RD and 800CW Dye-labeled secondary antibodies (LI-COR) are used. The washed membranes are scanned using Odyssey CLx imager (LI-COR). The intensity of Western blot signaling is quantitated using the Odyssey software. Primary antibodies used are: STAT5 Rabbit mAb (Cell Signaling Technology, #94205), STAT6 Rabbit mAb (Cell Signaling Technology, #5397) and GAPDH mouse monoclonal antibody (Santa Cruz Biotechnology, sc-47724).
To evaluate the degradation efficiency of degraders, immunoblotting analysis was performed. The general protocol is the following.
About 1 million cells for each data point were treated with compounds at indicated concentrations and durations. Untreated and treated cells in cell culture medium were transferred into tubes, followed by centrifugation at 3,000 rpm and 4° C. for 6 min Supernatants were removed from tubes and radioimmunoprecipitation assay (RIPA) lysis buffer supplemented with 1% protease inhibitor cocktail (Fisher Scientific cat. PI87786) and phosphatase inhibitor (Roche cat. 04906837001) were added to tubes containing the remaining cell pellets. The tubes were then left on ice for 30 min and placed in a −80° C. freezer. Subsequently they were thawed in 37° C. water, then centrifuged at 14,000 rpm for 15 min and the cell lysates transferred to new tubes. The concentration of total proteins in each tube was calculated using the Pierce BCA protein Assay kit (cat. 23225). Based on the calculated protein concentration, cell lysates containing approximately the same amount of proteins were transferred to new tubes, then distilled water and 4× Protein Sample Loading Buffer for Western Blots (LI-COR cat. 928-40004) supplemented with 20% of mercaptoethanol (Sigma Aldrich cat. M6250) were added on ice. The cell lysates were then reduced and denatured at 95° C. for 5 min. From the tubes containing cell lysates an equal amount of protein samples (20-40 μg) was loaded into precast 8%, 10%, 4%-12%, or 4%-20% Tris-glycine gels (Novex) filled with Tris-glycine SDS running buffer. After the proteins were resolved, they were transferred onto Immobile-FL PVDF Membrane (Millipore Sigma cat. IPFL00010), using Mini Trans-Blot Electrophoretic Transfer Cell (Bio-Rad 1703930). The membranes were blocked with Intercept Blocking Buffer (LI-COR cat. 927-70001) in LI-COR Western Blot boxes for 1 h at rt. The membranes were washed with 1× Tris-buffered saline-Tween-20 (TBST, 1× solution was made from 20×TBST solution, ThermoFisher Scientific cat. 28360) for 5 min 4 times. The membranes were incubated overnight at 4° C. in Intercept Blocking Buffer supplemented with primary antibodies (normally antibody:buffer 1:1000) and Tween-20. The membranes were washed with TBST for 5 min 4 times and were incubated with Intercept Blocking Buffer supplemented with IRDye 800CE Secondary Antibodies, IRDye 680RD Secondary Antibodies (LI-COR biosciences), Tween-20, and 10% SDS solution, for 1 h at rt. The membranes were then washed with TBST for 5 min 4 times and rinsed with deionized water before drying and scanning with Odyssey Dlx Amazing System (LI-COR). The immunoblots were finally quantified by the software.

STAT6 = target: T1, STAT6 (Homo sapiens, UniProt P42226); test: Immunoblotting (Western blot) analysis of STAT6 degradation efficiency of degraders in treated cells; type: cell-based
T1 construct: endogenous in cells; host or cells: MOLM-16, KU-812, SKNO1, MB231, L1236
T1 sequence (P42226 1-847): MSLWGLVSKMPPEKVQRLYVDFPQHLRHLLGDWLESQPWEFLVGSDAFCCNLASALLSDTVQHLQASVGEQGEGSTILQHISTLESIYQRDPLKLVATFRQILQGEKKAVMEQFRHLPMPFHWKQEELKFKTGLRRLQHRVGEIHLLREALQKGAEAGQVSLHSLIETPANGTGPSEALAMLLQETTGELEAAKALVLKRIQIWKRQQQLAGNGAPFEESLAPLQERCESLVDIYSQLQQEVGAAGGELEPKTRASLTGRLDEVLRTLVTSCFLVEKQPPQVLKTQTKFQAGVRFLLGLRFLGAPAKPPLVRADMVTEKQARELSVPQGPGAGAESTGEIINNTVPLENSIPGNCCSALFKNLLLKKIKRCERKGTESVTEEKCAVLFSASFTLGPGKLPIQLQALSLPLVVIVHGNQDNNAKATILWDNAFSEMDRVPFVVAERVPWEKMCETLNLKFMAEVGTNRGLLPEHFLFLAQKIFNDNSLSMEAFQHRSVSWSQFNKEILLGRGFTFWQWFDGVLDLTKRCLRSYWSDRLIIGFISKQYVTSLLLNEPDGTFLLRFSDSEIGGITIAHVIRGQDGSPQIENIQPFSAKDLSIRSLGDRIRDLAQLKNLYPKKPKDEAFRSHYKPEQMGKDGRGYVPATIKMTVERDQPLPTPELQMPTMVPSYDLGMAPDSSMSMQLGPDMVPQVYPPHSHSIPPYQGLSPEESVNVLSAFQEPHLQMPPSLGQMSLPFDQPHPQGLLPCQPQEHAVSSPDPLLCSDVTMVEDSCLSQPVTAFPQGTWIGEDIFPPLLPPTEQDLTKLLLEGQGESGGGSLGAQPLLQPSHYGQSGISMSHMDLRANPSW
Summary of the method: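 Read-out: fluorescent IRDye 680RD/800CW secondaries imaged on an infrared scanner, with band intensities quantified by densitometry and GAPDH serving as loading control. Samples were RIPA lysates, BCA-normalised, from ~1 million treated cells.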

[1] = MOLM-16 cells, class symbols, read-out: DC50 S6 MOLM-16
[2] = MOLM-16 cells, numeric bound, read-out: DC50 S6 MOLM-16
[3] = L1236 cells, read-out: DC50 S6 L1236

SMILES	DC50 (STAT6; [1])	DC50 (STAT6; [3])	further results
CC(C)(C)c1ccc(N(CCC(=O)NCCCC#Cc2cccc3c2CN(C2CCC(=O)NC2=O)C3=O)C(=O)[C@@H]2CCCN2C(=O)[C@@H](NC(=O)c2cc3cc(C(F)(F)P(=O)(O)O)ccc3s2)C(C)(C)C)cc1 (stereo partly drawn) [Compound 647, ((2-(((2S)-1-((2S)-2-((4-(tert-butyl)phenyl)(3-((5-(2-(2,6-dioxopiperidin-3-yl)-1-oxoisoindolin-4-yl)pent-4-yn-1-yl)amino)-3-oxopropyl)carbamoyl)pyrrolidin-1-yl)-3,3-dimethyl-1-oxobutan-2-yl)carbamoyl)benzo[b]thiophen-5-yl)difluoromethyl)phosphonic acid]			DC50 (STAT5; MOLM-16 cells, numeric bound, read-out: DC50 S5 MOLM-16): > 0.3 µM; DC50 (STAT5; SKNO1 cells, read-out: DC50 S5 SKNO1): 1 to 10 µM
CC(C)(C)[C@H](NC(=O)c1cc2cc(C(F)(F)P(=O)(O)O)ccc2s1)C(=O)N1CCN(C(=O)CC(=O)NCCCCCCCCC#Cc2cccc3c2C(=O)N(C2CCC(=O)NC2=O)C3=O)C[C@H]1C(=O)N1CCC[C@H](c2ccccc2)C1 (stereo partly drawn) [Compound 531, ((2-(((2S)-1-((2S)-4-(3-((10-(2-(2,6-dioxopiperidin-3-yl)-1,3-dioxoisoindolin-4-yl)dec-9-yn-1-yl)amino)-3-oxopropanoyl)-2-((R)-3-phenylpiperidine-1-carbonyl)piperazin-1-yl)-3,3-dimethyl-1-oxobutan-2-yl)carbamoyl)benzo[b]thiophen-5-yl)difluoromethyl)phosphonic acid]	> 10 µM		
CC(C)(C)[C@H](NC(=O)c1cc2cc(C(F)(F)P(=O)(O)O)ccc2s1)C(=O)N1C[C@@H](OCCCCCNc2cccc3c2CN(C2CCC(=O)NC2=O)C3=O)C[C@H]1C(=O)N1CCO[C@H](c2ccccc2)C1 (stereo partly drawn) [Compound 598, ((2-(((2S)-1-((2S,4S)-4-((5-((2-(2,6-dioxopiperidin-3-yl)-1-oxoisoindolin-4-yl)amino)pentyl)oxy)-2-((R)-2-phenylmorpholine-4-carbonyl)pyrrolidin-1-yl)-3,3-dimethyl-1-oxobutan-2-yl)carbamoyl)benzo[b]thiophen-5-yl)difluoromethyl)phosphonic acid]			DC50 (STAT6; [2]): > 0.3 µM
CC(C)(C)[C@H](NC(=O)c1cc2cc(C(F)(F)P(=O)(O)O)ccc2s1)C(=O)N1C[C@@H](OCCCCCCCCCCC#Cc2cccc3c2CN(C2CCC(=O)NC2=O)C3=O)C[C@H]1C(=O)N1CCO[C@H](c2ccccc2)C1 (stereo partly drawn) [Compound 585, ((2-(((2S)-1-((2S,4S)-4-((12-(2-(2,6-dioxopiperidin-3-yl)-1-oxoisoindolin-4-yl)dodec-11-yn-1-yl)oxy)-2-((R)-2-phenylmorpholine-4-carbonyl)pyrrolidin-1-yl)-3,3-dimethyl-1-oxobutan-2-yl)carbamoyl)benzo[b]thiophen-5-yl)difluoromethyl)phosphonic acid]		> 10 µM	DC50 (STAT6; [2]): > 0.3 µM
Cc1cc([C@H](C(=O)N2C[C@H](O)C[C@H]2C(=O)N[C@@H](CC(=O)NCCOCCOCCNC(=O)CO[C@@H]2C[C@@H](C(=O)N(C)c3ccc(Br)cc3)N(C(=O)[C@@H](NC(=O)c3cc4cc(C(F)(F)P(=O)(O)O)ccc4s3)C(C)(C)C)C2)c2ccc(-c3scnc3C)cc2)C(C)C)on1 [Compound 424, ((2-(((S)-1-((2S,4R)-2-((4-bromophenyl)(methyl)carbamoyl)-4-(((S)-1-((2S,4R)-4-hydroxy-1-((R)-3-methyl-2-(3-methylisoxazol-5-yl)butanoyl)pyrrolidin-2-yl)-3-(4-(4-methylthiazol-5-yl)phenyl)-1,5,16-trioxo-9,12-dioxa-2,6,15-triazaheptadecan-17-yl)oxy)pyrrolidin-1-yl)-3,3-dimethyl-1-oxobutan-2-yl)carbamoyl)benzo[b]thiophen-5-yl)difluoromethyl)phosphonic acid]	> 10 µM		
Cc1ncsc1-c1ccc([C@H](C)NC(=O)[C@@H]2C[C@@H](O)CN2C(=O)[C@@H](NC(=O)CCCCCCNC(=O)COc2ccc3c(c2)CN(C(=O)[C@@H](NC(=O)c2cc4cc(C(F)(F)P(=O)(O)O)ccc4s2)C(C)(C)C)[C@H](C(=O)N2CCO[C@H](c4ccccc4)C2)C3)C(C)(C)C)cc1 [Compound 466, (difluoro(2-(((S)-1-((S)-7-(2-((7-(((S)-1-((2S,4R)-4-hydroxy-2-(((S)-1-(4-(4-methylthiazol-5-yl)phenyl)ethyl)carbamoyl)pyrrolidin-1-yl)-3,3-dimethyl-1-oxobutan-2-yl)amino)-7-oxoheptyl)amino)-2-oxoethoxy)-3-((R)-2-phenylmorpholine-4-carbonyl)-3,4-dihydroisoquinolin-2(1H)-yl)-3,3-dimethyl-1-oxobutan-2-yl)carbamoyl)benzo[b]thiophen-5-yl)methyl)phosphonic acid]	> 10 µM	> 10 µM	
CC(C)(C)[C@H](NC(=O)c1cc2cc(C(F)(F)P(=O)(O)O)ccc2s1)C(=O)N1C[C@@H](OCC(=O)NCCCC#Cc2ccc3c(c2)C(=O)N(C2CCC(=O)NC2=O)C3=O)C[C@H]1C(=O)N1CCO[C@H](c2ccccc2)C1 (stereo partly drawn) [Compound 484, ((2-(((2S)-1-((2S,4S)-4-(2-((5-(2-(2,6-dioxopiperidin-3-yl)-1,3-dioxoisoindolin-5-yl)pent-4-yn-1-yl)amino)-2-oxoethoxy)-2-((R)-2-phenylmorpholine-4-carbonyl)pyrrolidin-1-yl)-3,3-dimethyl-1-oxobutan-2-yl)carbamoyl)benzo[b]thiophen-5-yl)difluoromethyl)phosphonic acid]	1 to 10 µM		
Cc1ncsc1-c1ccc([C@H](C)NC(=O)[C@@H]2C[C@@H](O)CN2C(=O)[C@@H](NC(=O)CCNC(=O)CO[C@H]2C[C@@H](C(=O)N3CCC[C@H](c4ccccc4)C3)N(C(=O)[C@@H](NC(=O)c3cc4cc(C(F)(F)P(=O)(O)O)ccc4s3)C(C)(C)C)C2)C(C)(C)C)cc1 [Compound 435, (difluoro(2-(((S)-1-((2S,4S)-4-(2-((3-(((S)-1-((2S,4R)-4-hydroxy-2-(((S)-1-(4-(4-methylthiazol-5-yl)phenyl)ethyl)carbamoyl)pyrrolidin-1-yl)-3,3-dimethyl-1-oxobutan-2-yl)amino)-3-oxopropyl)amino)-2-oxoethoxy)-2-((R)-3-phenylpiperidine-1-carbonyl)pyrrolidin-1-yl)-3,3-dimethyl-1-oxobutan-2-yl)carbamoyl)benzo[b]thiophen-5-yl)methyl)phosphonic acid]	> 10 µM	> 10 µM	
